{
  "source": "patent US9381163B2",
  "about": "“Floating capsules encapsulating particles loaded with one or more drugs” (NANYANG TECHNOLOGICAL UNIVERSITY, priority 2012, dated 2016)",
  "origin": "cited, not measured here",
  "data": [
    {"substance": "metoprolol tartrate salt", "values": [
      {"measurement": "log P", "value": 1.6}
    ]}
  ]
}
